B1: tagless AphAEc (periplasmic acid phosphatase AphA of Escherichia coli, His6-SUMO tag cleaved off by Ulp1) (enzyme)
chain: SPSPLNPGTNVARLAEQAPIHWVSVAQIENSLAGRPPMAVGFDIDDTVLFSSPGFWRGKKTFSPESEDYLKNPVFWEKMNNGWDEFSIPKEVARQLIDMHVRRGDAIFFVTGRSPTKTETVSKTLADNFHIPATNMNPVIFAGDKPGQNTKSQWLQDKNIRIFYGDSDNDITAARDVGARGIRILRASNSTYKPLPQAGAFGEEVIVNSEY
notes: AphA, nonspecific periplasmic acid phosphatase of Escherichia coli K-12; protein of around 25 kDa on SDS-PAGE; pET24d-his-sumo-aphAEc; linker between SUMO and aphA removed by mutagenesis; probably the mature protein as in m1 and m2; also called cleaved His6-SUMO-AphAEc; source: E. coli, purified; His6-SUMO tag cleaved off with His6-Ulp1, size-exclusion chromatography; not shown: His6-SUMO, …
B2: AphAEc-His6 (periplasmic acid phosphatase AphA of Escherichia coli, signal peptide removed, C-terminal His6 tag) (enzyme, UniProt P0AE22 26-237, looked up)
chain: SSPSPLNPGTNVARLAEQAPIHWVSVAQIENSLAGRPPMAVGFDIDDTVLFSSPGFWRGKKTFSPESEDYLKNPVFWEKMNNGWDEFSIPKEVARQLIDMHVRRGDAIFFVTGRSPTKTETVSKTLADNFHIPATNMNPVIFAGDKPGQNTKSQWLQDKNIRIFYGDSDNDITAARDVGARGIRILRASNSTYKPLPQAGAFGEEVIVNSEY
notes: AphA, nonspecific periplasmic acid phosphatase of Escherichia coli K-12; signal peptide removed from the construct; pET28a-aphAEc-his; also called AphA-His6; Ct His6-tagged AphAEc; source: E. coli, purified (Ni-NTA, size-exclusion chromatography on Superdex 200 Increase); not shown: His6, C-terminal, kept
B3: His6-AphAEc (periplasmic acid phosphatase AphA of Escherichia coli, signal peptide removed, N-terminal His6 tag) (enzyme, UniProt P0AE22 26-237, looked up)
chain: B2 chain
notes: AphA, nonspecific periplasmic acid phosphatase of Escherichia coli K-12; signal peptide removed from the construct; pET28a-his-aphAEc; also called Nt His6-tagged AphAEc; source: E. coli, purified (Ni-NTA, size-exclusion chromatography on Superdex 200 Increase); not shown: His6, N-terminal, kept

Key:
His6-HelHi = biological target: T1, His6-HelHi (Haemophilus influenzae, UniProt P26093); assay: pNPP phosphatase assay, A405; type: biochemical; conditions: 1 mM pNPP, 15 nM enzyme, pH 8 and 5.6
T1 construct: gene hel; N-terminal His6 kept, pET28a-his-helHi, expressed in E. coli

His6-AphAEc = biological target: T2, His6-AphAEc (Escherichia coli, UniProt P0AE22); assay: DRaCALA competition against […]-cAMP; type: binding; conditions: 5 mM AMP (figure legend: 4 mM); 2 nM 32P-cAMP; 40 mM Tris pH 7.5, 100 mM NaCl, 10 mM MgCl2
T2 construct: gene aphA; signal peptide removed, N-terminal His6 kept, pET28a, expressed in E. coli; tetramer by SEC

AphAEc-His6 = biological target: T3, AphAEc-His6 (Escherichia coli, UniProt P0AE22); assay: DRaCALA competition against […]-cAMP; type: binding; conditions: 5 mM AMP (figure legend: 4 mM); 2 nM 32P-cAMP; 40 mM Tris pH 7.5, 100 mM NaCl, 10 mM MgCl2
T3 construct: gene aphA; signal peptide removed, C-terminal His6 kept, pET28a, expressed in E. coli; non-natural dimer by SEC

[1] = biological target: the molecule itself; assay: SEC; Superdex 200 Increase 10/300 GL on an AKTA system; size estimated against standard proteins

T1 sequence (P26093 21-274): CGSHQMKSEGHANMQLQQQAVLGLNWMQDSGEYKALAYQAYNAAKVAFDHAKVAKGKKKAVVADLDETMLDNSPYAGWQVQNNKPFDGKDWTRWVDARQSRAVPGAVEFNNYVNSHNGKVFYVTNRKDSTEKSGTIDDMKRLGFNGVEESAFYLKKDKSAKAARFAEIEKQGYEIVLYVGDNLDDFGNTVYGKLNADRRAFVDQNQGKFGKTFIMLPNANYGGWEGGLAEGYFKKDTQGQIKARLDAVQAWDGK

Molecule | stoichiometry N [1] | other results
O=[N+]([O-])c1ccc(OP(=O)(O)O)cc1 [p-Nitrophenyl Phosphate] |  | pNPP phosphatase assay, A405 (His6-HelHi): acid phosphatase assay of the His6-HelHi protein
Nc1ncnc2c1ncn2[C@@H]1O[C@H](COP(=O)(O)O)[C@@H](O)[C@H]1O [AMP] |  | DRaCALA competition against 32P-cAMP (His6-AphAEc): the binding fractions dropped to nearly zero for AMP; DRaCALA competition against 32P-cAMP (AphAEc-His6): the binding fractions dropped to nearly zero for AMP
B1 | 4 | 
B2 | 2 | 
B3 | 4 | 

— paper PMC10694654 (The Journal of Biological Chemistry, 2023)
